# Source: ChEMBL document CHEMBL6083206, “SLL-1A-16 suppresses proliferation and induces autophagy in non-small-cell lung cancer cells via the AKT/mTOR signaling pathway” (RSC Med Chem, 2024)
# Calls of active or inactive are those of the source. The rule behind the calls is not given here.
# What was measured:
# A549 [1] = experiment: Antiproliferative activity against human A549 cells assessed as reduction in cell viability incubated for 48 hrs by CCK8 assay; assay type: functional, cell-based; settings: A549, 48 h
# NCI-H460 [2] = experiment: Antiproliferative activity against human NCI-H460 cells assessed as reduction in cell viability incubated for 48 hrs by CCK8 assay; assay type: functional, cell-based; settings: NCI-H460, 48 h
# BEAS-2B = experiment: Cytotoxicity against human BEAS-2B cells assessed as inhibition of cell viability at 3 to 300 uM incubated for 48 hrs by CCK8 assay; assay type: toxicity, cell-based; settings: dose 3-300 µM
# A549 [3] = experiment: Inhibition of colony formation in human A549 cells at 10 to 30 uM incubated for 24 hrs by giemsa staining based analysis; assay type: functional, cell-based; settings: dose 10-30 µM
# NCI-H460 [4] = experiment: Inhibition of colony formation in human NCI-H460 cells at 10 to 30 uM incubated for 24 hrs by giemsa staining based analysis; assay type: functional, cell-based; settings: dose 10-30 µM
# A549 [5] = experiment: Cell cycle arrest in human A549 cells assessed as accumulation of cells at G1 phase at 30 uM incubated for 24 hrs by PI staining based flow cytometric analysis (reference value: 56.42 +/- 1.36 %); assay type: functional
# NCI-H460 [6] = experiment: Cell cycle arrest in human NCI-H460 cells assessed as downregulation of cyclin D1 expression at 10 to 30 uM by Western blot analysis; assay type: functional, cell-based; settings: dose 10-30 µM
# A549 [7] = experiment: Induction of apoptosis in human A549 cells assessed as early apoptotic cells at 10 uM incubated for 24 hrs by Annexin V-FITC/PI staining based flow cytometric analysis (reference value: 0.44 %); assay type: functional
# A549 [8] = experiment: Induction of apoptosis in human A549 cells assessed as late apoptotic cells at 10 uM incubated for 24 hrs by Annexin V-FITC/PI staining based flow cytometric analysis (reference value: 2.29 %); assay type: functional
# A549 [9] = experiment: Induction of apoptosis in human A549 cells assessed as viable cells at 30 uM incubated for 24 hrs by Annexin V-FITC/PI staining based flow cytometric analysis (reference value: 96.29 %); assay type: functional; settings: read-out: Activity
# A549 [10] = experiment: Induction of apoptosis in human A549 cells assessed as necrotic cells at 30 uM incubated for 24 hrs by Annexin V-FITC/PI staining based flow cytometric analysis (reference value: 0.97 %); assay type: functional
# NCI-H460 [11] = experiment: Induction of apoptosis in human NCI-H460 cells assessed as early apoptotic cells at 10 uM incubated for 24 hrs by Annexin V-FITC/PI staining based flow cytometric analysis (reference value: 3.22 %); assay type: functional
# NCI-H460 [12] = experiment: Induction of apoptosis in human NCI-H460 cells assessed as late apoptotic cells at 10 uM incubated for 24 hrs by Annexin V-FITC/PI staining based flow cytometric analysis (reference value: 4.15 %); assay type: functional
# NCI-H460 [13] = experiment: Induction of apoptosis in human NCI-H460 cells assessed as necrotic cells at 10 uM incubated for 24 hrs by Annexin V-FITC/PI staining based flow cytometric analysis (reference value: 0.68 %); assay type: functional
# A549 [14] = experiment: Induction of apoptosis in human A549 cells assessed as upregulation of cleaved caspase 3 expression at 10 to 30 uM by Western blot analysis; assay type: functional, cell-based; settings: dose 10-30 µM
# NCI-H460 [15] = experiment: Induction of apoptosis in human NCI-H460 cells assessed as upregulation of Bax expression at 10 to 30 uM by Western blot analysis; assay type: functional, cell-based; settings: dose 10-30 µM
# A549 [16] = experiment: Induction of autophagy in human A549 cells assessed as increase in fluorescence intensity of anti-LC3 incubated for 48 hrs by immunofluorescence staining based analysis; assay type: functional, cell-based; settings: dose 10-30 µM
# A549 [17] = experiment: Induction of autophagy in human A549 cells assessed as increase in LC3-II expression at 10 to 30 uM incubated for 24 hrs by Western blot analysis; assay type: functional, cell-based; settings: dose 10-30 µM
# A549 [18] = experiment: Induction of autophagy in human A549 cells assessed as increase in Atg5 expression at 10 to 30 uM incubated for 24 hrs by Western blot analysis; assay type: functional, cell-based; settings: dose 10-30 µM
# NCI-H460 [19] = experiment: Induction of autophagy in human NCI-H460 cells assessed as increase in Atg5 expression at 10 to 30 uM incubated for 24 hrs by Western blot analysis; assay type: functional, cell-based; settings: dose 10-30 µM
# A549 [20] = experiment: Inhibition of Akt/mTOR signalling pathway in human A549 cells assessed as decrease in phosphorylated Akt expression by Western blot analysis; assay type: cell-based; settings: dose 10-30 µM
# A549 [21] = experiment: Inhibition of Akt/mTOR signalling pathway in human A549 cells assessed as decrease in mTOR expression by Western blot analysis; assay type: cell-based; settings: dose 10-30 µM
# A549 [22] = experiment: Inhibition of Akt/mTOR signalling pathway in human A549 cells assessed as decrease in phosphorylated 4EBP1 expression by Western blot analysis; assay type: cell-based; settings: dose 10-30 µM
# A549 [23] = experiment: Inhibition of Akt/mTOR signalling pathway in human A549 cells assessed as decrease in phosphorylated PRAS40 expression by Western blot analysis; assay type: cell-based; settings: dose 10-30 µM
# A549 [24] = experiment: Inhibition of Akt/mTOR signalling pathway in human A549 cells assessed as decrease in c-myc expression by Western blot analysis; assay type: cell-based; settings: dose 10-30 µM
# NCI-H460 [25] = experiment: Inhibition of Akt/mTOR signalling pathway in human NCI-H460 cells assessed as decrease in phosphorylated Akt expression by Western blot analysis; assay type: cell-based; settings: dose 10-30 µM
# NCI-H460 [26] = experiment: Inhibition of Akt/mTOR signalling pathway in human NCI-H460 cells assessed as decrease in phosphorylated P70 S6k expression by Western blot analysis; assay type: cell-based; settings: dose 10-30 µM
# NCI-H460 [27] = experiment: Inhibition of Akt/mTOR signalling pathway in human NCI-H460 cells assessed as decrease in phosphorylated 4EBP1 expression by Western blot analysis; assay type: cell-based; settings: dose 10-30 µM
# NCI-H460 [28] = experiment: Inhibition of Akt/mTOR signalling pathway in human NCI-H460 cells assessed as decrease in mTOR expression by Western blot analysis; assay type: cell-based; settings: dose 10-30 µM
# A549 [29] = experiment: Inhibition of Akt/mTOR signaling pathway in human A549 cells assessed as decrease in phosphorylated PRAS40 expression in presence of temsirolimus by Western blot analysis; assay type: cell-based
# A549 [30] = experiment: Inhibition of Akt/mTOR signaling pathway in human A549 cells assessed as decrease in phosphorylated 4EBP1 expression in presence of temsirolimus by Western blot analysis; assay type: cell-based
# NCI-H460 [31] = experiment: Inhibition of Akt/mTOR signaling pathway in human NCI-H460 cells assessed as decrease in mTOR expression in presence of temsirolimus by Western blot analysis; assay type: cell-based
# NCI-H460 [32] = experiment: Inhibition of Akt/mTOR signaling pathway in human NCI-H460 cells assessed as decrease in phosphorylated 4EBP1 expression in presence of temsirolimus by Western blot analysis; assay type: cell-based
# [33] = system: Gefitinib-resistant A549/G cell; experiment: Inhibition of Akt/mTOR signaling pathway in human Gefitinib-resistant A549/G cell assessed as decrease in phosphorylated 4EBP1 expression in presence of gefitinib by Western blot analysis; assay type: cell-based
# [34] = system: Gefitinib-resistant A549/G cell; experiment: Antiproliferative activity against human Gefitinib-resistant A549/G cell assessed as inhibition of cell proliferation in presence of gefitinib; assay type: functional, cell-based
# A549 [35] = experiment: Antitumor activity against human A549 cells xenografted in Balb/c nude mouse assessed as reduction in tumor growth rate at 7.5 to 15 mg/kg, ip administered for 14 days; assay type: functional, organism-based; settings: dose 7.5-15 mg/kg, time 14.0 day
# NCI-H460 [36] = experiment: Induction of apoptosis in human NCI-H460 cells assessed as viable cells at 30 uM incubated for 24 hrs by Annexin V-FITC/PI staining based flow cytometric analysis (reference value: 91.95 %); assay type: functional; settings: read-out: Activity
structure (smiles),measurement,setting,value
N#C[Se]CCCNC(=O)c1cccnc1,IC50,A549 [1],15.4 µM
same,IC50,NCI-H460 [2],17.4 µM
same,Activity,BEAS-2B,Toxic
same,inhibition,A549 [3],Active
same,inhibition,NCI-H460 [4],Active
same,Activity,A549 [5],78.51%
same,Activity,NCI-H460 [6],Active; G1 Phase Cell Cycle Arrest Observed
same,Activity,A549 [7],3.66%
same,Activity,A549 [8],8.48%
same,viability at 30 µM,A549 [9],75.9%
same,Activity,A549 [10],5.12%
same,Activity,NCI-H460 [11],5.81%
same,Activity,NCI-H460 [12],8.98%
same,Activity,NCI-H460 [13],3.73%
same,Activity,A549 [14],Active
same,Activity,NCI-H460 [15],Active
same,Activity,A549 [16],Dose-dependent-effect
same,Activity,A549 [17],Active
same,Activity,A549 [18],Active
same,Activity,NCI-H460 [19],Active
same,inhibition,A549 [20],Dose-dependent-effect; Inhibitory Ability Of Compound Is Comparable To Temsirolimus
same,inhibition,A549 [21],Dose-dependent-effect; Inhibitory Ability Of Compound Is Comparable To Temsirolimus
same,inhibition,A549 [22],Dose-dependent-effect; Inhibitory Ability Of Compound Is Comparable To Temsirolimus
same,inhibition,A549 [23],Dose-dependent-effect; Inhibitory Ability Of Compound Is Comparable To Temsirolimus
same,inhibition,A549 [24],Dose-dependent-effect; Inhibitory Ability Of Compound Is Comparable To Temsirolimus
same,inhibition,NCI-H460 [25],Dose-dependent-effect; Inhibitory Ability Of Compound Is Comparable To Temsirolimus
same,inhibition,NCI-H460 [26],Dose-dependent-effect; Inhibitory Ability Of Compound Is Comparable To Temsirolimus
same,inhibition,NCI-H460 [27],Dose-dependent-effect; Inhibitory Ability Of Compound Is Comparable To Temsirolimus
same,inhibition,NCI-H460 [28],Dose-dependent-effect; Inhibitory Ability Of Compound Is Comparable To Temsirolimus
same,inhibition,A549 [29],Active
same,inhibition,A549 [30],Active
same,inhibition,NCI-H460 [31],Active
same,inhibition,NCI-H460 [32],Active
same,inhibition,[33],Active
same,Activity,[34],Active
same,Activity,A549 [35],Active; Comparable To 25 Mg/Kg Of Gemcitabine Hydrochloride
same,viability at 30 µM,NCI-H460 [36],74.7%
